Measured values as given in patent publication US9562022B2 (priority 2009, dated 2017).
Counter-ions that a name gives are not always drawn.

Key:
P23H opsin = assay: Rhodopsin purification and regeneration (pigment formation from P23H opsin produced in the presence of compound); details: P23H opsin treated with 20 μM compound during mutant protein production; relative to pigment formation with vehicle (DMSO) alone

With `CC1=C(CCC(=O)N2CCN(C(N)=O)CC2)C(C)(C)CCC1` [Compound 51, 4-(3-(2,6,6-Trimethylcyclohex-1-enyl)propanoyl)piperazine-1-carboxamide] the “regeneration of 500 nm absorbing pigment upon treatment with retinal” value (from here on “regeneration”) (P23H opsin) was “increase”.

In the case of `CC1=C(/C=C/C(=O)N2CCN(S(N)(=O)=O)CC2)C(C)(C)CCC1` (as salt: hydrochloride), the melting point is reported as 181 to 183 °C.

In the case of `CC1=C(/C=C/C(=O)N2CCN(C(=O)NC(C)C)CC2)C(C)(C)CCC1` [Compound 37, (E)-N-Isopropyl-4-(3-(2,6,6-trimethylcyclohex-1-enyl)acryloyl)piperazine-1-carboxamide], the “regeneration” value (P23H opsin) is reported as “increase”.

In the case of `CC1=C(/C=C/C(=O)N2CCN(C(N)=O)CC2)C(C)(C)CCC1` [Compound 33, (E)-4-(3-(2,6,6-Trimethylcyclohex-1-enyl)acryloyl)piperazine-1-carboxamide], the “regeneration” value (P23H opsin) is reported as “increase”.

For `CC1=C(/C=C/C(=O)N2CCN(C(N)=O)[C@H](C)C2)C(C)(C)CCC1` [Compound 53, (R,E)-2-Methyl-4-(3-(2,6,6-trimethylcyclohex-1-enyl)acryloyl)piperazine-1-carboxamide], the “regeneration” value (P23H opsin) was “increase”.

With `C#CC1CN(C(=O)/C=C/C2=C(C)CCCC2(C)C)CCN1C(N)=O` (centres unmarked) [Compound 106, (E)-2-Ethynyl-4-(3-(2,6,6-trimethylcyclohex-1-en-1-yl)acryloyl)piperazine-1-carboxamide] the “regeneration” value (P23H opsin) was “increase”.

In the case of `CC1=C(/C=C/C(=O)N2CCOCC2)C(C)(C)CCC1` [Compound 6, (E)-1-Morpholino-3-(2,6,6-trimethylcyclohex-1-enyl)prop-2-en-1-one], the “regeneration” value (P23H opsin) is reported as “increase”.

In the case of `CC1=C(/C=C/C(=O)N2CCN(C(N)=S)CC2)C(C)(C)CCC1` [Compound 105, (E)-4-(3-(2,6,6-Trimethylcyclohex-1-en-1-yl)acryloyl)piperazine-1-carbothioamide], the “regeneration” value (P23H opsin) is reported as “increase”.

With `[2H]C1([2H])CCC(C)(C)C(/C=C/C(=O)N2CCN(C(N)=O)CC2)=C1C` [Compound 63, (E)-4-(3-(3,3-Dideutero-2,6,6-trimethylcyclohex-1-en-1-yl)acryloyl)piperazine-1-carboxamide] the “regeneration” value (P23H opsin) was “increase”.

For `CC1CCCC(C)(C)C1/C=C/C(=O)N1CCN(C(N)=O)CC1` (racemic) [Compound 71, (±)-4-((E)-3-((1,6-anti)-2,2,6-trimethylcyclohexyl)acryloyl)piperazine-1-carboxamide], the “regeneration” value (P23H opsin) was “increase”.

With `CC1=C(/C=C/C(=O)N2CCC(NC(N)=O)C2)C(C)(C)CCC1` (centres unmarked) [Compound 50, (E)-1-(1-(3-(2,6,6-Trimethylcyclohex-1-enyl)acryloyl)pyrrolidin-3-yl)urea] the “regeneration” value (P23H opsin) was “increase”.

For `CC1=C(/C=C/C(=O)N2CC[C@@H](OC(N)=O)C2)C(C)(C)CCC1` [Compound 57, (R,E)-1-(3-(2,6,6-Trimethylcyclohex-1-en-1-yl)acryloyl)pyrrolidin-3-yl carbamate], the “regeneration” value (P23H opsin) was “increase”.

For `CC1=C(/C=C/C(=O)N2CCN(C(N)=O)[C@@H](C)C2)C(C)(C)CCC1` [Compound 52, (S,E)-2-Methyl-4-(3-(2,6,6-trimethylcyclohex-1-enyl)acryloyl)piperazine-1-carboxamide], the “regeneration” value (P23H opsin) was “increase”.

With `CC1=C(CNC(=O)N2CCN(C(N)=O)CC2)C(C)(C)CCC1` [Compound 55, N^1-((2,6,6-Trimethylcyclohex-1-en-1-yl)methyl)piperazine-1,4-dicarboxamide] the “regeneration” value (P23H opsin) was “increase”.

With `C[C@H]1CCCC(C)(C)[C@@H]1/C=C/C(=O)N1CCN(C(N)=O)CC1` [Compound 73, (+)-4-((E)-3-((1S,6S)-2,2,6-trimethylcyclohexyl)acryloyl)piperazine-1-carboxamide] the “regeneration” value (P23H opsin) was “increase”.

With `CC1=C(/C=C/C(=O)N2CCCN(C(N)=O)CC2)C(C)(C)CCC1` [Compound 13, (E)-4-(3-(2,6,6-Trimethylcyclohex-1-enyl)acryloyl)-1,4-diazepane-1-carboxamide] the “regeneration” value (P23H opsin) was “increase”.

With `C[C@H]1CCCC(C)(C)[C@@H]1CCC(=O)N1CCN(C(N)=O)CC1` [Compound 80, 4-(3-((1R,6S)-2,2,6-trimethylcyclohexyl)propanoyl)piperazine-1-carboxamide] the “regeneration” value (P23H opsin) was “increase”.
